{"source": "patent US20120245223A1", "about": "“USE OF GYMNODIMINE, ANALOGUES AND DERIVATIVES FOR THE TREATMENT AND/OR PREVENTION OF NEURODEGENERATIVE DISEASES ASSOCIATED WITH TAU AND B-AMYLOID” (priority 2009, published 2012)", "key": {"cortical neurones": {"tested_on": "cortical neurones", "experiment": "Alamar Blue fluorescence viability assay in primary cortical cultures", "format": "cell-based, mouse", "settings": "for Viability of cortical neurones: 72 hours in culture, mean ± standard error, three experiments", "text": "(§1) In order to carry out the experiments of the present invention, either an in vitro cortical neuronal model with simultaneous overexpression of tau and β-amyloid, obtained from a model of Alzheimer's disease in triple-transgenic (3×Tg-AD or 3×Tg) mice, obtainable via the detailed procedure in the international patent application WO2003/053136 and provided by the title holders of this application, or an in vitro cortical neuronal model obtained from non-transgenic (Non Tg) mice.\nThe primary cortical cultures in the present invention were obtained from 3×Tg-AD mouse embryos of 15-17 days gestation and the wild cultures were obtained from non-3×Tg control mouse embryos of the same strain. The effect of the compounds used in this invention on cellular viability was estimated by a fluorescence assay using the Alamar Blue viability indicator. To carry out the assay, primary cortical cultures seeded on 96-well plates were used. The neuronal cells were incubated with gymnodimine, which was added to the culture medium at different concentrations, and the effect on in vitro neuronal viability at different treatment times was determined. The maximum concentration of gymnodimine evaluated was 100 nM and the concentration of Alamar blue was 10%. The volume of the reaction used was 200 μl. Fluorescence was measured at wavelengths of 530 nm (excitation) and 590 nm (emission)."}, "β-amyloid": {"tested_on": "β-amyloid", "experiment": "Western blot of intracellular β-amyloid (6E10 antibody) in 3×Tg-AD cortical cultures", "format": "cell-based, mouse", "settings": "3×Tg-AD neocortical cultures, 50 nM, 3 to 7 days; p<0.005, n=3", "text": "as §1\n(§2) The effect of gymnodimine on overexpression of β-amyloid and tau hyperphosphorylation was determined by the Western blot technique. Primary neuronal cultures were treated with 50 nM gymnodimine for between 3 and 7 days of culture. The cells were then processed following the usual protocols for Western blot. For Western blot studies, protein expression was evaluated using 6E10 anti-β-amyloid primary antibodies at a dilution of 1:500, AT8 anti-Tau (tau phosphorylated on Ser202, dilution 1:1000) and AT100 anti-tau (tau phosphorylated on Thr212 and Ser214, dilution 1:1000). […] Total protein concentration was determined by Bradford's method using bovine albumin as standard. […] The membranes were incubated with the primary antibodies, washed, and then incubated with a secondary antibody linked to HRP; the immunoreactivity was detected by chemiluminescence. […]"}, "[1]": {"tested_on": "tau phosphorylated on Ser202", "experiment": "Western blot of tau phosphorylated on Ser202 (AT8 antibody) in 3×Tg-AD cortical cultures", "format": "cell-based, mouse", "settings": "3×Tg transgenic cultures, 50 nM, 3 to 7 days; p<0.05, n=3", "text": "as §1, §2"}, "[2]": {"tested_on": "tau phosphorylated on Thr212 and Ser214", "experiment": "Western blot of tau phosphorylated on Thr212 and Ser214 (AT100 antibody) in 3×Tg-AD cortical cultures", "format": "cell-based, mouse", "settings": "3×Tg transgenic cultures, 50 nM, 3 to 7 days; p<0.001, n=3", "text": "as §1, §2"}, "total tau": {"tested_on": "total tau", "experiment": "Western blot of total tau basal levels (Tau46 antibody) in control neurones", "format": "cell-based, mouse", "settings": "control (non-transgenic) neurones, 50 nM; mean ± standard error, two experiments", "experimental": "(§3) The effect of gymnodimine on overexpression of β-amyloid and tau hyperphosphorylation was determined by the Western blot technique. Primary neuronal cultures were treated with 50 nM gymnodimine for between 3 and 7 days of culture. The cells were then processed following the usual protocols for Western blot. For Western blot studies, protein expression was evaluated using 6E10 anti-β-amyloid primary antibodies at a dilution of 1:500, AT8 anti-Tau (tau phosphorylated on Ser202, dilution 1:1000) and AT100 anti-tau (tau phosphorylated on Thr212 and Ser214, dilution 1:1000). For Western blot assays, the neuronal cultures treated with gymnodimine were washed with cold phosphate buffer and lysed in 50 mM Tris-HCl buffer (pH 7.4) containing 150 mM NaCl, 1 mM EDTA, 1% Triton X-100, 2 mM DTT, 2.5 mM PMSF, 40 mg/ml aprotinin, 4 mg/ml leupeptin, 5 mM NaF, 1 mM Na3VO4, 1 mg/ml pepstatin A and 1 mg/ml benzamidine. Total protein concentration was determined by Bradford's method using bovine albumin as standard. […] The membranes were incubated with the primary antibodies, washed, and then incubated with a secondary antibody linked to HRP; the immunoreactivity was detected by chemiluminescence. […]\n(§4) The effect of gymnodimine on basal phosphorylation of tau was determined by Western blot techniques. […]"}, "[3]": {"tested_on": "tau phosphorylated on site Ser202", "experiment": "Western blot of basal tau phosphorylated on Ser202 in control neurones", "format": "cell-based, mouse", "settings": "control (non-transgenic) neurones, 50 nM", "experimental": "as §3, §4"}, "[4]": {"tested_on": "nicotinic acetylcholine receptors", "settings": "blocking effect; Kharrat et al. 2008, Dragunow et al. 2005; cited from earlier work"}, "[5]": {"settings": "cited from earlier work"}}}
{"molecule": "CC1=C[C@@H](C2=C(C)[C@@H]3/C=C(\\C)[C@@H](O)CC[C@H]4C[C@@H](C)[C@@H](O4)/C(C)=C/CCC4=NCCC[C@@]43CC2)OC1=O", "note": "[Gymnodimine, gymnodimine]", "values": [{"measurement": "Viability of cortical neurones", "setting": "cortical neurones; 2.5 nM", "value": "97.0 ± 4.9", "unit": "% control"}, {"measurement": "Viability of cortical neurones", "setting": "cortical neurones; 5 nM", "value": "102.8 ± 0.3", "unit": "% control"}, {"measurement": "Viability of cortical neurones", "setting": "cortical neurones; 10 nM", "value": "105.6 ± 5.9", "unit": "% control"}, {"measurement": "Viability of cortical neurones", "setting": "cortical neurones; 25 nM", "value": "105.1 ± 1.09", "unit": "% control"}, {"measurement": "Viability of cortical neurones", "setting": "cortical neurones; 50 nM", "value": "102.9 ± 1.4", "unit": "% control"}, {"measurement": "Viability of cortical neurones", "setting": "cortical neurones; 100 nM", "value": "101.8 ± 1.7", "unit": "% control"}, {"measurement": "Effect on cell viability (in words)", "setting": "cortical neurones; up to maximum concentration of 100 nM, neuronal model", "value": "does not cause a reduction in cell viability"}, {"measurement": "Expression of intracellular β-amyloid (Western blot, 6E10)", "setting": "β-amyloid", "value": "significant reduction of overexpression of β-amyloid"}, {"measurement": "Tau phosphorylation on Ser202 (Western blot, AT8)", "setting": "[1]", "value": "significant reduction of tau phosphorylation"}, {"measurement": "Tau phosphorylation on Thr212 and Ser214 (Western blot, AT100)", "setting": "[2]", "value": "significant reduction of tau phosphorylation"}, {"measurement": "Total tau basal levels", "setting": "total tau", "value": "111 ± 3.9", "unit": "% control"}, {"measurement": "Levels of tau phosphorylated on site Ser202", "setting": "[3]", "value": 95, "unit": "% control"}, {"measurement": "Binding to nicotinic acetylcholine receptors", "setting": "[4]", "value": "high affinity binding"}, {"measurement": "Toxicity intracerebrally versus intraperitoneally", "setting": "[5]; introduced intracerebrally compared with intraperitoneally", "value": "much higher when it is introduced intracerebrally"}, {"measurement": "Toxicity when orally administered", "setting": "[5]; oral administration, Munday et al. 2004", "value": "significantly reduced toxicity"}]}
